Test results published in BindingDB's records for doi:10.1021/jm060108a (University of Liège, 2006).

Assay: Inhibition of U46619-induced platelet aggregation

Row | Structure (SMILES) | IC50 [nM]
1 | CCCCCNC(=O)NS(=O)(=O)c1cc([N+](=O)[O-])ccc1Nc1ccc(C)cc1 | 278
2 | Cc1ccc(Nc2ccc([N+](=O)[O-])cc2S(=O)(=O)NC(=O)NC(C)(C)C)cc1 [BM 573] | 240
3 | Cc1ccc(Nc2ccc([N+](=O)[O-])cc2S(=O)(=O)NC(=O)N2CCCCC2)cc1 [N-[2-(4-methylphenylamino)-5-nitrobenzenesulfonyl]-piperidine-1-carboxamide] | 900

The next lines start with the values.

Row | IC50 [nM] | Structure (SMILES)
4 | 670 | CCCCCNC(=O)NS(=O)(=O)c1cc([N+](=O)[O-])ccc1Oc1ccc(C)cc1 [N-n-pentyl-N'-[2-(4-methylphenoxy)-5-nitrobenzenesulfonyl]urea]
5 | 90 | Cc1cccc(C)c1Nc1ccc([N+](=O)[O-])cc1S(=O)(=O)NC(=O)NC(C)(C)C [N-tert-butyl-N'-[2-(2,6-dimethylphenylamino)-5-nitrobenzenesulfonyl]urea]
6 | 300 | Cc1ccc(Oc2ccc([N+](=O)[O-])cc2S(=O)(=O)NC(=O)NC(C)(C)C)cc1 [N-tert-butyl-N'-[2-(4-methylphenoxy)-5-nitrobenzenesulfonyl]urea]
7 | 800 | Cc1ccc(Sc2ccc([N+](=O)[O-])cc2S(=O)(=O)NC(=O)NC(C)(C)C)cc1 [N-tert-butyl-N'-[2-(4-methylphenylthio)-5-nitrobenzenesulfonyl]urea]
